From patent US11034672B1, “Tyrosine kinase inhibitor compositions, methods of making and methods of use” (Black Diamond Therapeutics, Inc., priority 2018, dated 2021)
pIC50: −log10 of the molar value.

Legend:
HER2 WT [1] = molecular target: T1, HER2 WT (Homo sapiens, UniProt P04626); assay: Activity for inhibiting HER2 (Table B), HER2 WT; type: cell-based
HER2 S310F [2] = molecular target: T2, HER2 S310F (Homo sapiens, UniProt P04626, S310F); assay: Activity for inhibiting HER2 (Table B), HER2 S310F; type: cell-based; conditions: read-out: HER2 S310F, potency code (IC50)
T2 construct: expressed in transfected cells; host or cells: BaF3 (murine pro-B)
Method: (§1) EC50 values were determined with the same application.

EGFR NPH [3] = molecular target: T3, EGFR NPH (Homo sapiens, UniProt P00533, DUP771-773); assay: Activity for inhibiting EGFR (Table A), EGFR NPH; type: cell-based; conditions: read-out: EGFR NPH, potency code (IC50)
T3 construct: expressed in transfected cells; host or cells: BaF3 (murine pro-B), retroviral pMXs-IRES-Blasticidin
T3 sequence (P00533 with tags, fused parts or gaps DUP771-773): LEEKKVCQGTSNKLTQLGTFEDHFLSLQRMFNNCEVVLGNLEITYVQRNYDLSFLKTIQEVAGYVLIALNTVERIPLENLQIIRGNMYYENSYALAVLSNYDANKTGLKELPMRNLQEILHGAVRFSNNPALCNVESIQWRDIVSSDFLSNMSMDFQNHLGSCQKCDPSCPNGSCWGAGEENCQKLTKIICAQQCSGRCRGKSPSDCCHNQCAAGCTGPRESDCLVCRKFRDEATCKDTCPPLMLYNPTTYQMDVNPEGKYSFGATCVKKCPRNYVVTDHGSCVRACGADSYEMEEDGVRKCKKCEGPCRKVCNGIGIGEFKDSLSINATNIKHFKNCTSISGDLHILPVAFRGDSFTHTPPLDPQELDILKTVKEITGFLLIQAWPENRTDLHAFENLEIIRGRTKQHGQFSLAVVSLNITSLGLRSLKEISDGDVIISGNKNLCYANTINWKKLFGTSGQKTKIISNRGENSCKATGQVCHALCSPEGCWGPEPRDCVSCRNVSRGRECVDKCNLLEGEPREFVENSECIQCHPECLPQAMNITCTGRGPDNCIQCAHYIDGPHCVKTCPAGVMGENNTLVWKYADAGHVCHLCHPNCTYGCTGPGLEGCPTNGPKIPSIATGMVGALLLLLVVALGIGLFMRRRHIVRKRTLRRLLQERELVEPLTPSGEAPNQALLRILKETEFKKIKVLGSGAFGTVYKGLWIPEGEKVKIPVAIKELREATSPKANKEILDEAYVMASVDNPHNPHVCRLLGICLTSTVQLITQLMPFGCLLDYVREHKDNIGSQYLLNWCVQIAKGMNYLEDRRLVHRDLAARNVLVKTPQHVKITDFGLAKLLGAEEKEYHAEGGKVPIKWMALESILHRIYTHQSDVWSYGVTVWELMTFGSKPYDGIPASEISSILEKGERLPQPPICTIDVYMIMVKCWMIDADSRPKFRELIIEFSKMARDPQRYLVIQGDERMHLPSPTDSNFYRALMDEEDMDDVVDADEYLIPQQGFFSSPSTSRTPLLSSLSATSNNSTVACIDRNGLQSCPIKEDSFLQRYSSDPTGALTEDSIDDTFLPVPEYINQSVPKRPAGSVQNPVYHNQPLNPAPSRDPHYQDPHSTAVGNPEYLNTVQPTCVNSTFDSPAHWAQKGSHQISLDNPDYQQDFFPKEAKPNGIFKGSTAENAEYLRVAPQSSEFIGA

HER2 WT [4] = molecular target: T1, HER2 WT; assay: BaF3 cell proliferation assay, HER2 WT (Table B); type: cell-based; conditions: potency code, 3 days, CellTiterGlo, read-out: HER2 WT (Activity for Inhibiting HER2)
HER2 YVMA [5] = molecular target: T4, HER2 YVMA (Homo sapiens, UniProt P04626, INS775YVMA); assay: Activity for inhibiting HER2 (Table B), HER2 YVMA; type: cell-based; conditions: read-out: HER2 YVMA, potency code (IC50)
T4 construct: expressed in transfected cells; host or cells: BaF3 (murine pro-B)
T4 sequence (P04626 with tags, fused parts or gaps INS775YVMA): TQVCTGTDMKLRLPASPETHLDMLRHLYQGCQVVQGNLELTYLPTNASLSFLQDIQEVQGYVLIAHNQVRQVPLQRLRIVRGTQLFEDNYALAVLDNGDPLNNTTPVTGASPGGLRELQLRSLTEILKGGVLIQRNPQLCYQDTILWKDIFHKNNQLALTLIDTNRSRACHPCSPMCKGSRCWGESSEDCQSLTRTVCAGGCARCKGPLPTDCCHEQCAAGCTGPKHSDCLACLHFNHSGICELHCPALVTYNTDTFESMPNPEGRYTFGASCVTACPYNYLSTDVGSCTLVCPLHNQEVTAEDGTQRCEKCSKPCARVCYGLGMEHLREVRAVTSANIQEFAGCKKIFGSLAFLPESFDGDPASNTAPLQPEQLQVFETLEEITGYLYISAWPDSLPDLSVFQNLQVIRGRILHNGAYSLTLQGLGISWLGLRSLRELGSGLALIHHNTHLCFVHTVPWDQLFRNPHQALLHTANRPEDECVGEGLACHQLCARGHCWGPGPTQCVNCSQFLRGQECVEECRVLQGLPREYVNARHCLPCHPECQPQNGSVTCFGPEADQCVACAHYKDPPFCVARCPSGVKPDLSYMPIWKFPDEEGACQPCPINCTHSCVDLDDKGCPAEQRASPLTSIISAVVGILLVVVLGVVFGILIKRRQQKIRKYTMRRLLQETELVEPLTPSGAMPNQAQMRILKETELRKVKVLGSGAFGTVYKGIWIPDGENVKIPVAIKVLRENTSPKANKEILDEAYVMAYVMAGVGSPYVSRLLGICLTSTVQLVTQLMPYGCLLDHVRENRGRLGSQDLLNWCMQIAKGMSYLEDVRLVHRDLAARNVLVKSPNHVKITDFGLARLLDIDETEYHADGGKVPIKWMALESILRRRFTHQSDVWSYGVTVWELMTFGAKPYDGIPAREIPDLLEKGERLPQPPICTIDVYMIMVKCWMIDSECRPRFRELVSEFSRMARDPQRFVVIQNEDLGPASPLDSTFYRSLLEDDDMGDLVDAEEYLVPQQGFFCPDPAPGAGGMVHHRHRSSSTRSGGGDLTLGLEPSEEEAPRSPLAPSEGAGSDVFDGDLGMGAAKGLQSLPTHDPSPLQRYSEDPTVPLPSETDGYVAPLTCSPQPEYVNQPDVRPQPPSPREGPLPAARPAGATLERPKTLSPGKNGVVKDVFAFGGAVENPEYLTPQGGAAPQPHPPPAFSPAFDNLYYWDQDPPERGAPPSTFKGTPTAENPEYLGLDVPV
Method: as §1

EGFR V3 [6] = molecular target: T5, EGFR V3 (Homo sapiens, UniProt P00533, DELINS30-297G); assay: BaF3 cell proliferation assay, EGFR V3 (Table A); type: cell-based; conditions: potency code, 3 days, CellTiterGlo, read-out: EGFR V3 (Activity for Inhibiting EGFR)
T5 construct: expressed in transfected cells; host or cells: BaF3 (murine pro-B), retroviral pMXs-IRES-Blasticidin
T5 sequence (P00533 with tags, fused parts or gaps DELINS30-297G): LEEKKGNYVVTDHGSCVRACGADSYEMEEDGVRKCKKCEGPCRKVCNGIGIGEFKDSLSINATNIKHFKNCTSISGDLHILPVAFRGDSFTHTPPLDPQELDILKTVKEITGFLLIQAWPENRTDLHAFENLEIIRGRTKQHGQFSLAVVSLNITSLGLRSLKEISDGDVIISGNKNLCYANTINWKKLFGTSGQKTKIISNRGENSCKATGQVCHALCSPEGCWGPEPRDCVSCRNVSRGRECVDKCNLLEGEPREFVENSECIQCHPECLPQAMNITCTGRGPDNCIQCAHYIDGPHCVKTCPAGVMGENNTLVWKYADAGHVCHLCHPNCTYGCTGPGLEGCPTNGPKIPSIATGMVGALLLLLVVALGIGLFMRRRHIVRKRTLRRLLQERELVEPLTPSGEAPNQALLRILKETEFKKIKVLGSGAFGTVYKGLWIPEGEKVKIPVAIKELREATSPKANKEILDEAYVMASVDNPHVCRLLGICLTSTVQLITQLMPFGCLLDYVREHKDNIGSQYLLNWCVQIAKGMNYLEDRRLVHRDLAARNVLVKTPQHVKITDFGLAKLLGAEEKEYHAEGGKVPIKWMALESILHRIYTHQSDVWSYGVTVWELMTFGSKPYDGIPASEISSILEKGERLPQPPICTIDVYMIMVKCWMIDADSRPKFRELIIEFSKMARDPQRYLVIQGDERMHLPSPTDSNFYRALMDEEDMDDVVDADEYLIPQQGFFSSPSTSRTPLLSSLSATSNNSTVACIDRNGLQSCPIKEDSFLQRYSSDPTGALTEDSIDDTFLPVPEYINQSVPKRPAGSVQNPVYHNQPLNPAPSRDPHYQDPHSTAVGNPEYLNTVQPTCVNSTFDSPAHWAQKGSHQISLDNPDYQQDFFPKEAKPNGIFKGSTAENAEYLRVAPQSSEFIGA
Method in brief: (§2)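 EC50 values come from proliferation of IL-3-independent BaF3 lines. These lines were made by two spin infections with retrovirus encoding each mutant, plus polybrene (8 μg/ml). They then underwent one week of 10 μg/ml blasticidin selection and were removed from IL-3.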

EGFR V3 [7] = molecular target: T5, EGFR V3; assay: Activity for inhibiting EGFR (Table A), EGFR V3 (EGFR-Viii); type: cell-based; conditions: read-out: EGFR V3, potency code (IC50)
EGFR SVD [8] = molecular target: T6, EGFR SVD (Homo sapiens, UniProt P00533, DUP768-770); assay: Activity for inhibiting EGFR (Table A), EGFR SVD; type: cell-based; conditions: read-out: EGFR SVD, potency code (IC50)
T6 construct: expressed in transfected cells; host or cells: BaF3 (murine pro-B), retroviral pMXs-IRES-Blasticidin

HER2 YVMA [9] = molecular target: T4, HER2 YVMA; assay: BaF3 cell proliferation assay, HER2 YVMA (Table B); type: cell-based; conditions: potency code, 3 days, CellTiterGlo, read-out: HER2 YVMA (Activity for Inhibiting HER2)
HER2 S310F [10] = molecular target: T2, HER2 S310F; assay: BaF3 cell proliferation assay, HER2 S310F (Table B); type: cell-based; conditions: potency code, 3 days, CellTiterGlo, read-out: HER2 S310F (Activity for Inhibiting HER2)
EGFR WT [11] = molecular target: T7, EGFR WT (Homo sapiens, UniProt P00533); assay: Activity for inhibiting EGFR (Table A), EGFR WT; type: cell-based; conditions: read-out: EGFR WT, potency code (IC50)
T7 sequence (P00533 25-1210 N540K): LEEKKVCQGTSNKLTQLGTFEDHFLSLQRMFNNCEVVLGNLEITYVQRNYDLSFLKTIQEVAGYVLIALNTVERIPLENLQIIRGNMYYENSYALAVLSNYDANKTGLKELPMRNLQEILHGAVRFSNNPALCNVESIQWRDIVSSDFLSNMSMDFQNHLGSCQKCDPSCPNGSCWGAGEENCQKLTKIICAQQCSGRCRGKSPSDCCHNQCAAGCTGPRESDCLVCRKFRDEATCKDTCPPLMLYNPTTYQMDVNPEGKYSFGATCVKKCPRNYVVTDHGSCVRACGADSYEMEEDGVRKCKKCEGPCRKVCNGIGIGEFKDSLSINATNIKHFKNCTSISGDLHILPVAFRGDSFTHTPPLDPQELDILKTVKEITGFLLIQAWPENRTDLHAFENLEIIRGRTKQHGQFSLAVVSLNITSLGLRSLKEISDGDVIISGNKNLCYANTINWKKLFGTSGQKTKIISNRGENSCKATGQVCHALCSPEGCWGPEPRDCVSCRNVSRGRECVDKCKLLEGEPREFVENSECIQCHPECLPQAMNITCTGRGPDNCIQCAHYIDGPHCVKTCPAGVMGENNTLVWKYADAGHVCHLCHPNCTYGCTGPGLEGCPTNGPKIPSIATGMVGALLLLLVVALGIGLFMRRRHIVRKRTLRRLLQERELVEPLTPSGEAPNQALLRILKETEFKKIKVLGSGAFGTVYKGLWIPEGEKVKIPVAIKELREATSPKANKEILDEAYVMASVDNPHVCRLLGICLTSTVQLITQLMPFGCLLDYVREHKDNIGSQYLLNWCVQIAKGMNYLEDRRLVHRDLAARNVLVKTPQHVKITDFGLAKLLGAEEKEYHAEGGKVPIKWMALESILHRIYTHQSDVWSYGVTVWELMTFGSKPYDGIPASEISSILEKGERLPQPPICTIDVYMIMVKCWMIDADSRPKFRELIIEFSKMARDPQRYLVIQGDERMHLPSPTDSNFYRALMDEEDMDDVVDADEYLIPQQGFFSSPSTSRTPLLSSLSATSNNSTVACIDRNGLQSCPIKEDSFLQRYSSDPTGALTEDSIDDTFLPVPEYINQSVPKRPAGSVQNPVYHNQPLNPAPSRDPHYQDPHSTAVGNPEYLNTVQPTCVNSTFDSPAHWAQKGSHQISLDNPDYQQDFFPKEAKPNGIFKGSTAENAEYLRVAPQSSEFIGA

EGFR WT [12] = molecular target: T7, EGFR WT; assay: BaF3 cell proliferation assay, EGFR WT (Table A); type: cell-based; conditions: potency code, 3 days, CellTiterGlo, read-out: EGFR WT (Activity for Inhibiting EGFR)
Method in brief: as §2

EGFR NPH [13] = molecular target: T3, EGFR NPH; assay: BaF3 cell proliferation assay, EGFR NPH (Table A); type: cell-based; conditions: potency code, 3 days, CellTiterGlo, read-out: EGFR NPH (Activity for Inhibiting EGFR)
Method in brief: as §2

EGFR SVD [14] = molecular target: T6, EGFR SVD; assay: BaF3 cell proliferation assay, EGFR SVD (Table A); type: cell-based; conditions: potency code, 3 days, CellTiterGlo, read-out: EGFR SVD (Activity for Inhibiting EGFR)
Method in brief: as §2

Her2 S310F BaF3 tumors = assay: Tumor growth in athymic nude mice bearing Her2 S310F BaF3 tumors; type: in vivo; conditions: for Tumor response: FIG. 28
Method: Tumor size was measured for each dosing schedule, and analyzed to assess regression. […] The effect was further confirmed in the dose-dependent experiment.
A mouse tumor model containing mutant Her2 was used to test the ability of Compound No. 26 to inhibit tumor growth and induce tumor regression in vivo. Athymic nude mice from Charles River Labs bearing Her2 S310F BaF3 tumors were treated with Compound No. 26 either at 15 mg/kg once per day (QD), 7.5 mg/kg twice per day (BID), and 15 mg/kg twice per day (BID). Tumor size was measured for each dosing condition and analyzed to assess regression. […] The effect was further confirmed in mice dosed at 15 mg/kg once per day (QD), 7.5 mg/kg twice per day (BID), and 15 mg/kg twice per day (BID). In addition to assessing tumor size in these groups, plasma was collected from dosed individuals at 2 and 5 hours following each treatment. Compound No. 26 levels were measured in the plasma samples to determine pharmacokinetic profiles that may influence tumor response.
Tumor size was measured and analyzed to assess the effect on tumor growth and regression.
A mouse tumor model containing mutant Her2 was used to test the ability of Compound No. 6 to inhibit tumor growth and induce tumor regression in vivo. Athymic nude mice from Charles River Labs bearing Her2 S310F BaF3 tumors were treated with Compound No. 6 at 30 mg/kg once per day (QD) for 10 days. Tumor size was measured and analyzed to assess the effect on tumor growth and regression.

[15] = Table B, read-out: HER2 WT, potency code (IC50)
[16] = text lists of compounds, read-out: IC50 value for inhibiting wild-type HER2
[17] = 50 mg/kg once per day for 10 days

Row | SMILES | pIC50 (HER2 WT [1]; [15]) | pIC50 (HER2 WT [1]; [16]) | pIC50 (HER2 S310F [2]) | pIC50 (EGFR NPH [3]) | pIC50 (HER2 WT [4]) | pIC50 (HER2 YVMA [5]) | pIC50 (EGFR V3 [6]) | pIC50 (EGFR V3 [7]) | pIC50 (EGFR SVD [8]) | pIC50 (HER2 YVMA [9]) | pIC50 (HER2 S310F [10]) | pIC50 (EGFR WT [11]) | pIC50 (EGFR WT [12]) | pIC50 (EGFR NPH [13]) | pIC50 (EGFR SVD [14]) | Tumor volume (Her2 S310F BaF3 tumors; [17]) | also measured
1 | CC#CC(=O)Nc1cc2c(Nc3ccc(OCc4ccccn4)c(Cl)c3)ncnc2cc1OCCN1CCOCC1 [compound 5] | > 8.30 | ≥ 8.30 | > 8.30 | 7.30 to 7.52 | > 8.30 | 8.00 to 8.30 | 7.70 to 8.00 | 7.70 to 8.00 | 7.70 to 8.00 | 8.00 to 8.30 | > 8.30 | 7.30 to 7.52 | 7.30 to 7.52 | 7.30 to 7.52 | 7.70 to 8.00 | – | –
2 | C=CC(=O)Nc1cc2c(Nc3cc(Cl)c(OCc4cccc(F)c4)cc3F)ncnc2cc1OCCN1CCOCC1 [compound 6] | 8.00 to 8.30 | ≥ 8.00 | 7.70 to 8.00 | – | 8.00 to 8.30 | 7.00 to 7.30 | 7.52 to 7.70 | 7.52 to 7.70 | – | 7.00 to 7.30 | 7.70 to 8.00 | 6.52 to 6.70 | 6.52 to 6.70 | – | – | – | Tumor volume (Her2 S310F BaF3 tumors; 30 mg/kg once per day (QD) for 10 days, FIG. 30): decreased
3 | C=CC(=O)Nc1cc2c(Nc3ccc(OCc4ccccn4)c(Cl)c3)ncnc2cc1OCCN1CCOCC1 [compound 8] | 8.00 to 8.30 | ≥ 8.00 | 7.70 to 8.00 | 7.30 to 7.52 | 8.00 to 8.30 | 7.00 to 7.30 | 7.52 to 7.70 | 7.52 to 7.70 | 7.52 to 7.70 | 7.00 to 7.30 | 7.70 to 8.00 | 6.30 to 6.52 | 6.30 to 6.52 | 7.30 to 7.52 | 7.52 to 7.70 | decreased | Tumor regression, dose-dependent experiment (Her2 S310F BaF3 tumors; 15 mg/kg to 100 mg/kg once per day (QD) for 10 days, FIG. 26 right panel): regressed in a Compound No. 8 dose-dependent manner

The next lines start with results.

Row | pIC50 (HER2 WT [1]; [15]) | pIC50 (HER2 WT [1]; [16]) | pIC50 (HER2 S310F [2]) | pIC50 (EGFR NPH [3]) | pIC50 (HER2 WT [4]) | pIC50 (HER2 YVMA [5]) | pIC50 (EGFR V3 [6]) | pIC50 (EGFR V3 [7]) | pIC50 (EGFR SVD [8]) | pIC50 (HER2 YVMA [9]) | pIC50 (HER2 S310F [10]) | pIC50 (EGFR WT [11]) | pIC50 (EGFR WT [12]) | pIC50 (EGFR NPH [13]) | pIC50 (EGFR SVD [14]) | SMILES | Tumor volume (Her2 S310F BaF3 tumors; [17]) | also measured
4 | > 8.30 | ≥ 8.00 | 8.00 to 8.30 | 7.70 to 8.00 | > 8.30 | 7.52 to 7.70 | 7.52 to 7.70 | 7.52 to 7.70 | 7.70 to 8.00 | 7.52 to 7.70 | 8.00 to 8.30 | 6.00 to 6.30 | 6.00 to 6.30 | 7.70 to 8.00 | 7.70 to 8.00 | C=CC(=O)Nc1cc2c(Nc3ccc(OCc4ccccn4)c(Cl)c3)ncnc2cc1OCCCN1CCOCC1 [compound 21] | did not increase over the same timeframe and showed moderate reduction in volume | –
5 | 8.00 to 8.30 | ≥ 8.00 | 8.00 to 8.30 | 7.30 to 7.52 | 8.00 to 8.30 | 7.30 to 7.52 | 7.30 to 7.52 | 7.30 to 7.52 | 7.30 to 7.52 | 7.30 to 7.52 | 8.00 to 8.30 | 6.30 to 6.52 | 6.30 to 6.52 | 7.30 to 7.52 | 7.30 to 7.52 | C=CC(=O)Nc1cc2c(Nc3ccc(OCc4ccccn4)c(Cl)c3)ncnc2cc1C#C[C@@H]1[C@H]2CN(C)C[C@@H]12 [compound 26] | – | Tumor response (Her2 S310F BaF3 tumors; 7.5 mg/kg twice per day (BID)): definite tumor growth inhibition properties; Tumor response (Her2 S310F BaF3 tumors; 15 mg/kg BID): definite tumor regressive properties; Tumor volume over the time course (Her2 S310F BaF3 tumors; 15 mg/kg QD, 7.5 mg/kg BID, 15 mg/kg BID, FIG. 27): did not increase; Tumor response (Her2 S310F BaF3 tumors; 15 mg/kg once per day (QD)): definite tumor growth inhibition properties
